In patent publication US20080194638A1, “BIOAVAILABLE FORMULATIONS OF HETEROCYCLIC COMPOUNDS” (Forest Laboratories Holdings Limited, priority 2007, published 2008):
Structures can show the parent of a compound that is named as a salt.

Experiment: Solubility of crystalline forms
Type: physicochemical
Text: wherein R^1-R^4, P, X, Y, m, n and Ar are as defined therein. One such compound is N-(3,5-dichloropyrid-4-yl)-4-difluoromethoxy-8-methanesulfonamido-dibenzo[b,d]furan-1-carboxamide, the International nonproprietary name for which is oglemilast. The pharmacology and safety profiles for oglemilast have been described in, for example, Eur. Respir. J. (2004) 24 (Suppl 48): Abst 1391. Both US 2005/0027129 and International Publication No. WO 2006/040652 disclose methods for preparing oglemilast and pharmaceutically acceptable salts thereof, such as the sodium salt (see, e.g., Examples 30 and 31 of US publication No. 2005/0027129) and generically disclose formulations of oglemilast and the corresponding sodium salt. In these formulations, the active ingredient is present substantially in a crystalline form. […] In an attempt to increase the bioavailability of formulations containing, e.g., oglemilast, salt forms of the active ingredient have typically been used.

Row | SMILES | solubility
1 | CS(=O)(=O)Nc1ccc2oc3c(OC(F)F)ccc(C(=O)Nc4c(Cl)cncc4Cl)c3c2c1 [crystalline oglemilast, N-(3,5-dichloropyrid-4-yl)-4-difluoromethoxy-8-methanesulfonamido-dibenzo[b,d]furan-1-carboxamide] | approximately 0.2 μg/mL
2 | CS(=O)(=O)Nc1ccc2oc3c(OC(F)F)ccc(C(=O)Nc4c(Cl)cncc4Cl)c3c2c1 [crystalline sodium salt of oglemilast] | approximately 140 μg/mL
